Columns and labels:
[1] = target: Cyclin-dependent kinase 2/cyclin E1 (Homo sapiens, UniProt P24941); assay: Inhibition of human recombinant CDK2/CycE using HHASPRK as substrate by ESI-MS analysis; type: protein-complex assay
[2] = target: T1, Tyrosine-protein kinase ZAP-70 (Homo sapiens, UniProt P43403); assay: Inhibition of human recombinant ZAP70 using EEEEYEEEE as substrate by ESI-MS analysis
T1 sequence (P43403 whole entry): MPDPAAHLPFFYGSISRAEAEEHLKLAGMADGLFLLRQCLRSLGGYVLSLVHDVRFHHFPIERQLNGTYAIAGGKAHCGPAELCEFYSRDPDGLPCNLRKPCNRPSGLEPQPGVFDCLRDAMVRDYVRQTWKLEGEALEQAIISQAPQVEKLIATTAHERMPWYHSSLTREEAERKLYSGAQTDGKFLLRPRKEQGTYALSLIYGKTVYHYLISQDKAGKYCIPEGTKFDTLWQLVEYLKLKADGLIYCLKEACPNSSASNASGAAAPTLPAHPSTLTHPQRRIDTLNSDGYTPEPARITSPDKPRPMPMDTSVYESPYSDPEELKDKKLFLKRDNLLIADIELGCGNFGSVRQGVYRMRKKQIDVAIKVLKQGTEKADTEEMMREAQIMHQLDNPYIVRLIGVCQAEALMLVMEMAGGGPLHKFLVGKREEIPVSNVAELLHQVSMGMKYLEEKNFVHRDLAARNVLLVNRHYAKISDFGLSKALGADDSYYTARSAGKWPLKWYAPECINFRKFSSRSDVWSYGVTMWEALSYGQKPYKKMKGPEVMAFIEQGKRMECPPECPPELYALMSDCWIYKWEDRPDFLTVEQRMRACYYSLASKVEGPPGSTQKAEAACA

[3] = target: Protein-tyrosine kinase 2-beta (Homo sapiens, UniProt Q14289); assay: Inhibition of human recombinant PYK2 by ESI-MS analysis
Sequence of Protein-tyrosine kinase 2-beta (Q14289 whole entry): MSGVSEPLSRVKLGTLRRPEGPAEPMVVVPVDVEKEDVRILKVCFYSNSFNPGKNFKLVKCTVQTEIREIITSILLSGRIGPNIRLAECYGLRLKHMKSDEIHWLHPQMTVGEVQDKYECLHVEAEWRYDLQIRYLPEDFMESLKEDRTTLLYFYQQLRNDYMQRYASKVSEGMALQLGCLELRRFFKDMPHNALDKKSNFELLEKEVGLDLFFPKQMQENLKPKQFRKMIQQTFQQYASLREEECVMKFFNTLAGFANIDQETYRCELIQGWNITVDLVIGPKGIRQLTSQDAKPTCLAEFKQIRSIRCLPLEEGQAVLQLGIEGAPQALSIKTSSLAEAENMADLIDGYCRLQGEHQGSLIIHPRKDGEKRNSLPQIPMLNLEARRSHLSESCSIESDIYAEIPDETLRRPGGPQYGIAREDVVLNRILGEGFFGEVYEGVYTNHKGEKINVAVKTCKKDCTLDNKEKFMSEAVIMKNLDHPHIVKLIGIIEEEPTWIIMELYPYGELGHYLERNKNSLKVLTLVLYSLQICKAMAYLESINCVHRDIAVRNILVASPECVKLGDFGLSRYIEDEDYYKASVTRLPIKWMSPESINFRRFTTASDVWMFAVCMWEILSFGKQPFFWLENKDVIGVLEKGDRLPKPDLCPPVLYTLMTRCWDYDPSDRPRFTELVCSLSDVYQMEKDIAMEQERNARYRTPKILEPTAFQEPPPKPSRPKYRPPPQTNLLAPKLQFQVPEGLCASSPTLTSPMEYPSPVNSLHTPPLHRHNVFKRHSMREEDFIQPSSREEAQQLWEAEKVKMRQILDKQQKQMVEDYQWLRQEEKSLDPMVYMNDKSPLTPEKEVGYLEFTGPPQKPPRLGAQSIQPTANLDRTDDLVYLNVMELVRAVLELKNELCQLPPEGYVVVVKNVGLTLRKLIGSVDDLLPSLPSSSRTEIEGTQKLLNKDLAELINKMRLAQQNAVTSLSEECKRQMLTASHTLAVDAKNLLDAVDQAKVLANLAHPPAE

Ki [1] [nM]	Ki [2] [nM]	Ki [3] [nM]	SMILES
372	1550	> 10000	O=C1C(C2=C3C(=Nc4ccccc43)/C(=C\c3ccc(O)cc3)C2=O)=C2C(=Nc3ccccc32)/C1=C\c1ccc(O)cc1 [SCYTONEMIN]
490	> 10000	10.5	Cc1[nH]c(/C=C2\C(=O)Nc3ccc(S(=O)(=O)N(C)c4cccc(Cl)c4)cc32)c(C)c1C(=O)N1CCN(C)CC1
1100	> 10000	> 10000	CN(C)c1ncnc2nc[nH]c12 [DIMETHYLADENINE]
	> 10000	> 10000	NS(=O)(=O)c1ccc(N/N=C2\C(=O)Nc3ccc(Br)cc32)cc1
0.525	2630	933	CCCCc1c(-c2ccc(OC)cc2)[nH]c2nccnc12 [ALOISINE]

SMILES	Ki [1] [nM]	Ki [2] [nM]	Ki [3] [nM]
N#CC(C#N)=Cc1ccc(O)c(O)c1 [TYRPHOSTIN 23]	617		
NS(=O)(=O)c1ccc(Nc2nc(OCC3CCCCC3)c3nc[nH]c3n2)cc1		> 10000	> 10000
